Experimental data as given in patent US7163787B2, “Methods for the identification of antiviral compounds” (Crucell Holland B.V., priority 2001, dated 2007).

Columns and labels:
HSV-2 [1] = experiment: Viable cell scoring by MTS assay of HSV-2 infected PER.C6 with acyclovir; format: cell-based, Herpes Simplex Virus type 2; settings: HSV-2 on PER.C6; day 6 post infection
Method: (§1) FIG. 17. Virustatic effect of acyclovir against (A) HSV-1 and (B) HSV-2 using infection of PER.C6 with different 10 fold serial dilutions of virus and viable cell scoring by MTS assay on day 6 post infection.
(§2) To test the feasibility of PER.C6 for antiviral drug screening, the acyclovir/HSV system was used. A TCID50 titration of both a HSV-1 as well as a HSV-2 stock virus produced on PER.C6 (titer 6000 TCID50/ml) was performed in either the absence or in the presence of different concentrations of acyclovir. PER.C6 cells were seeded in a 96-wells tissue culture plate at a concentration of 1×10^5 cells/well, in normal culture medium, DMEM (Gibco) supplemented with heat inactivated FBS (origin US, Gibco) and 1 ml 4.9 M MgCl2 (Sigma). The day after seeding, cells were pre-incubated with the appropriate acyclovir (20 mg/ml, Genthon) concentration being, 200, 20, 2, 0,2 and 0 μg/ml, diluted in normal culture medium, for 2 hours at 37° C. and 10% CO2. A total of 20 wells were used per concentration. […]
(§3) At day 6 post infection, CPE was scored in each of the wells and TCID50 calculated according to the Karber method (1931), which is well known to persons skilled in the art. In addition, viable cells were scored with the MTS assay. […] 10% CO2, followed by reading the OD490 in an ELISA reader.

HSV-1 [2] = experiment: Viable cell scoring by MTS assay of HSV-1 infected PER.C6 with acyclovir; format: cell-based, Herpes Simplex Virus type 1; settings: HSV-1 on PER.C6; day 6 post infection
Method: as §1, §2, §3

HSV-1 [3] = experiment: TCID50 titration of HSV-1 on PER.C6 with acyclovir, CPE score; format: cell-based, Herpes Simplex Virus type 1
Method: (§4) FIG. 16. Virustatic activity of acyclovir for Herpes Simplex Virus type 1 and type 2 (HSV-1 and HSV-2) using PER.C6 cells as a substrate for virus replication and TCID50 calculations based on CPE score on day 6 post infection.
as §2, §3

HSV-2 [4] = experiment: TCID50 titration of HSV-2 on PER.C6 with acyclovir, CPE score; format: cell-based, Herpes Simplex Virus type 2
Method: as §4, §2, §3

HSV = settings: A549 cells; cited from earlier work
HRV14 or HRV16 = settings: cited from earlier work

Row | SMILES | viable cells scored with MTS assay compared with TCID50 result (HSV-2 [1]) | prevention of cell death caused by virus (viable cells, MTS) (HSV-1 [2]) | TCID50 reduction as compared to the control (HSV-1 [3]; HSV-1 on PER.C6, 20 μg/ml of acyclovir, CPE score day 6 post infection) | virustatic effect (HSV-1 [3]; HSV-1 propagated on PER.C6 cells) | amount of acyclovir for 1000 fold TCID50 reduction, relative to HSV-1 (HSV-2 [4]; HSV-2 on PER.C6, CPE score day 6 post infection) | virustatic effect (HSV-2 [4]; HSV-2 propagated on PER.C6 cells) | HSV replication (HSV) | cytopathic effect in infected cells (HRV14 or HRV16; cells infected with HRV14 or HRV16) | rhinovirus replication in vitro (HRV14 or HRV16; in vitro)
1 | Nc1nc2c(ncn2COCCO)c(=O)[nH]1 [acyclovir, 2-amino-1,9-dihydro-9-[(2-hydroethoxy)methyl]-6H-purin-6-one] | comparable results were obtained | more effective at a lower dosage in preventing cell death caused by HSV-1 than by HSV-2 | ~1000 fold | clear virustatic effect | required a higher amount of acyclovir | clear virustatic effect | inhibited HSV replication | – | –
2 | c1ccc2c(c1)oc1ccccc12 [Dibenzofuran] | – | – | – | – | – | – | – | hinder the cytopathic effect | block rhinovirus replication in vitro
